Data published in the supplement of paper PMC3068080.

What was measured:
TGFBR2 mRNA = assay: remaining TGFBR2 mRNA relative to control siRNA (off-target knock-down) (fraction of control); quantification method: branched DNA; higher = less knock-down
Description: (§1)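 Screen-hit siRNA duplexes (19-mer plus 3' dTdT overhang) were transiently transfected into HaCaT cells in 12-well plates. After 48 h, TGFBR1 and TGFBR2 mRNA were quantified by branched DNA assay (QuantiGene, normalised to HPRT1) or by SYBR qPCR (normalised to HPRT1/SMAD4). Values are the remaining mRNA relative to control-siRNA-transfected cells; 1-2 biological replicates.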

TGFBR1 mRNA = assay: remaining TGFBR1 mRNA relative to control siRNA (off-target knock-down) (fraction of control); quantification method: branched DNA; higher = less knock-down
Description: as §1

| Sequence | remaining TGFBR2 mRNA (TGFBR2 mRNA) | remaining TGFBR1 mRNA (TGFBR1 mRNA) |
| --- | --- | --- |
| AAAAACCCUUUCCUGGGGCTT | 0.21 | 0.36 |
| AAAAGGCCUUCAAGCUGUUTT | 0.41 | 0.56 |
| AAAUGCUCCACCUCUCGGGTT | 0.28 | 0.37 |
| AACAUAGCCUCAUACAAGGTT | 0.25 | 0.7 |
| AAGUCUGACUCGGUAAGUATT | 0.72 | 0.87 |
| AAGUGCAUUCCGUGCAAUCTT | 0.59 | 0.92 |
| AAUCAGGGCGGAGUAGGUGTT | 0.91 | 1.21 |
| AAUCCUCUGGUGACUGCUGTT | 0.54 | 1.13 |
| AAUGCUGUUGGCAGCCAGATT | 0.11 | 0.71 |
| AAUGGGAGACAAGCCAAUUTT | 0.25 | 0.77 |
| AAUUGGCUCCACAGUCUUUTT | 0.44 | 1.23 |
| ACAGCCUCGAACACUGACATT | 0.58 | 1.04 |
| ACCAUGUCGGCCUUUUCAATT | 0.5 | 0.35 |
| ACCUUACCUUGUCGACGAATT | 0.56 | 0.7 |
| ACUGGAUCAGUCGCAGAAUTT | 0.38 | 1.15 |
| ACUUUGGACAUGACCGGCUTT | 0.51 | 1.2 |
| ACUUUGGUUUCGGUGCAGCTT | 0.23 | 0.63 |
| AGAAGUGUGACACGGGUCUTT | 0.15 | 0.93 |
| AGACUACUGUGGCCAGUAATT | 1.1 | 1.22 |
| AGACUGCAAAUAUUCCUGATT | 0.49 | 1.31 |
| AGAGAUUCCUUUUCUUCACTT | 0.79 | 0.24 |
| AGAUCACCGCGUAGACAACTT | 0.65 | 1.01 |
| AGAUCCAGGAUUACGCCAGTT | 0.72 | 0.88 |
| AGCACUGCGAGUACUGUGUTT | 1.08 | 0.33 |
| AGCCAGAAACUCAGACACCTT | 0.67 | 0.99 |

| Sequence | remaining TGFBR2 mRNA (TGFBR2 mRNA) | remaining TGFBR1 mRNA (TGFBR1 mRNA) |
| --- | --- | --- |
| AGCCCAUGCCCUUCACAAUTT | 0.89 | 0.71 |
| AGCCUCUGGAGAAUCUCCUTT | 0.6 | 1.04 |
| AGCGGUGCGUUUCAGGCUGTT | 0.7 | 1.06 |
| AGCGUCCUGAAGACUGGAUTT | 1.03 | 0.27 |
| AGCUUAUCCAACAGACGUCTT | 0.29 | 1.07 |
| AGCUUGUGCCAAGUGCCAUTT | 0.33 | 0.92 |
| AGGCAACAGGGAUGAGAUGTT | 0.2 | 0.93 |
| AGGCUAUAAGCUCGCCUACTT | 0.25 | 0.84 |
| AGGUCAUCACGUACUUUUUTT | 1.09 | 0.16 |
| AGGUUGUGGGCAAAGAUGUTT | 0.83 | 0.92 |
| AGUGGUACCACGAGCAAAGTT | 0.66 | 0.88 |
| AGUUCUCUCAAUUGCUUACTT | 0.54 | 0.92 |
| AUAAGACAAGUGGUCGGGGTT | 0.94 | 0.52 |
| AUAAGCAGUAAGUAGCUGGTT | 0.99 | 0.5 |
| AUAAGCAGUGAGAACGAGCTT | 1.26 | 0.5 |
| AUAUAUACUGCUAUGGUCATT | 0.39 | 0.39 |
| AUAUCCCGGGAGUUGUCGUTT | 0.37 | 1.1 |
| AUAUGUAAGACCUUCCUUCTT | 0.25 | 0.38 |
| AUAUUCCGUAAAACGAACATT | 0.38 | 0.77 |
| AUCCUGAGAUGUCAGCAGCTT | 0.4 | 1.42 |
| AUCCUUGGAGAUGAGCUGGTT | 0.16 | 0.72 |
| AUCCUUGGCCAGUUUGGUCTT | 0.15 | 1.19 |
| AUCCUUGUCUGGAACAGUGTT | 0.25 | 1.33 |
| AUCUAAACUCCUCUGGAGCTT | 0.38 | 0.76 |
| AUCUACACACACGCAAGAATT | 0.73 | 1.48 |

| Sequence | remaining TGFBR2 mRNA (TGFBR2 mRNA) | remaining TGFBR1 mRNA (TGFBR1 mRNA) |
| --- | --- | --- |
| AUGACACCUCAGUCCUUCCTT | 0.88 | 0.38 |
| AUGCACCGAACAGCUCCAUTT | 0.31 | 1.56 |
| AUGCACUGAAGAAUUUCUUTT | 0.75 | 0.43 |
| AUGCCAUUGUGCAUUGUCATT | 0.36 | 0.85 |
| AUGCUCCCUCUCAUACUCUTT | 0.39 | 0.9 |
| AUGGACAUUUACGGUAGUGTT | 0.46 | 0.44 |
| AUGGAGUAGCAUCACUCUCTT | 0.33 | 1.1 |
| AUGGCUAUUCCUGACCACGTT | 0.26 | 0.93 |
| AUGGUGAGAAGACACAGGCTT | 0.54 | 1.33 |
| AUGGUGUGGCUCGUCGUGCTT | 0.46 | 0.45 |
| AUGGUGUUUGCAAGCUCCUTT | 0.36 | 1 |
| AUGUAUAGGUAGUGCACAGTT | 0.35 | 0.98 |
| AUGUAUAGUCACGCAGUUCTT | 0.24 | 0.98 |
| AUGUCUCAAAGUCAAAAAATT | 0.58 | 0.92 |
| AUGUUCCGCCUGCUUUUGCTT | 0.38 | 1.19 |
| AUUAUGUCCUCUACGAUUATT | 0.49 | 0.76 |
| AUUGAAGCCACCAUUCUCCTT | 0.94 | 0.23 |
| AUUGUUCCGGAAAUAGGUCTT | 0.72 | 1.15 |
| AUUUCGCACACGUCCGUGUTT | 0.61 | 0.86 |
| CAAACAGCGGUUGGAAUAATT | 0.33 | 0.81 |
| CACUUCCCGGAUACUCAGATT | 0.33 | 0.96 |
| CAGAGCGAUCACCUUGAACTT | 0.17 | 0.66 |
| CAGUCUCAUCGUCCUCAUCTT | 0.69 | 1.07 |
| CCACUGGUGUGGGCCAUAATT | 0.51 | 1.38 |
| CCCAAGUCAUCCUGGUUGUTT | 0.67 | 0.83 |

| Sequence | remaining TGFBR2 mRNA (TGFBR2 mRNA) | remaining TGFBR1 mRNA (TGFBR1 mRNA) |
| --- | --- | --- |
| CCUCAAUUGACACUUGCCUTT | 0.8 | 1 |
| CUACCAUCAAUCCGGUAGGTT | 0.84 | 0.94 |
| CUCCUUGGCACACUUCUCATT | 0.34 | 0.93 |
| CUGACCAUGCAGAGGAUGATT | 0.82 | 0.83 |
| CUUGACUUCUGGGGUCCACTT | 0.94 | 0.92 |
| CUUGGUACAGCACAUGGUUTT | 0.82 | 0.55 |
| GAAGGUGUGAGUGAGGUCATT | 1.17 | 0.19 |
| GAGCAGCUCUCGUAGCCAUTT | 0.33 | 1.01 |
| GAGGUUGUUGUUGAGCUCGTT | 0.73 | 0.96 |
| GAGUGACCUGCUCCUCUAATT | 0.61 | 1.01 |
| GAUGAAGAAGAGCGCAGCATT | 1.08 | 1.27 |
| GAUGGACUGCAUACAUUGGTT | 0.87 | 0.29 |
| GAUGUUCCACAAAUUCCACTT | 0.47 | 0.85 |
| GCUGAAUGAGGGUAGUCUUTT | 0.64 | 0.28 |
| GGAAGUGUCAUGGAAGGUGTT | 0.29 | 0.7 |
| GGGCUGUCAAUGACAGCUUTT | 0.6 | 0.82 |
| GGGUUUUCCCAGUCACGACTT | 0.54 | 0.91 |
| GGUGCCAGGCAUUUUAUCCTT | 0.9 | 1.06 |
| GUUCAGCAGCAGCAGACCATT | 0.79 | 1.16 |
| GUUCUUGGGCUAUGUCCAATT | 0.32 | 0.89 |
| UAACGUGUGUAUGUCUGGCTT | 0.69 | 0.3 |
| UACAUGAUGUAAACGAUAATT | 0.54 | 0.44 |
| UACUUAAAGCCAGGGCCACTT | 0.77 | 1.32 |
| UAGCAUUCAUUUUCCGUGGTT | 0.27 | 0.72 |
